{"source": "patent US11292782B2", "about": "“Diarylhydantoin compounds and methods of use thereof” (Nuvation Bio Inc., priority 2018, dated 2022)", "type_in_all_cases": "cell-based", "key": {"22RV1 cells": {"system": "22RV1 cells", "assay": "Cell proliferation assay, 22RV1 (CellTiter-Glo)", "settings": "3 days", "procedure": "(§1) LNCaP-abl (3,000 cells/well, received from Dr. Myles Brown, Dana Farber Cancer Institute), 22RV1 (1,000 cells/well), LNCaP (5,000 cells/well), or COS (3,000 cells/well) cells were plated in 96 well plates in 50 μl RPMI+10% FBS (Fisher Scientific, Waltham, Mass.). LNCaP, COS, and 22RV1 cells were obtained from ATCC. Cells were treated in RPMI+10% FBS with test articles, ranging from 1 nM to 10 μM. Three days later, viable cells (LNCaP-abl, 22RV1, and COS) were measured by CellTiter-Glo assay (Promega, Madison, Wis.). For LNCaP cells, medium containing test article was changed after 3 days of treatment, and after an additional 3 days of culture, viable cells were measured by CellTiter-Glo assay.\n(§2) The LNCaP cell line is androgen responsive with AR and PSA expression. It contains a T877A mutation in the AR. The 22RV1 cell line is positive for AR and PSA with additional AR splice variants and is insensitive to androgen for cell proliferation. The LNCaP-abl cell line expresses both AR and GR but is insensitive to androgen for cell proliferation. COS-7 is used as an AR negative cell line in this experiment."}, "FKBP5 gene expression": {"system": "FKBP5 gene expression", "assay": "AR activity assay: FKBP5 gene expression (realtime PCR)", "settings": "1 and 10 μM", "procedure": "(§3) LNCaP (ATCC) or LNCaP-EnzR (MR49F was received from Dr. Martin Gleave, University of British Columbia) cells were plated in 96 well plates at 15,000-20,000 cells/well in RPMI+1% csFBS without phenol red. Cells were treated 2 days after plating and harvested 18 hours after treatment (for TMPRSS2) or 24 hours after treatment (for PSA and FKBP5). RNA was isolated (cells to ct kit, Life Technologies), cDNA synthesized (cells to ct kit), and expression of TMPRSS2, PSA or FKBP5 and expression of GAPDH were measured using realtime PCR primers and probes (TaqMan probes, Life Technologies) by realtime PCR (ABI 7900, Life Technologies). Relative expression was calculated using ddct method."}, "LNCaP-abl cells": {"system": "LNCaP-abl cells", "assay": "Cell proliferation assay, LNCaP-abl (CellTiter-Glo)", "settings": "72 h, 3 days", "procedure": "as §1, §2"}, "Human AR [1]": {"target": "T1, Human AR (Homo sapiens (Human), UniProt P10275)", "T1 sequence (P10275 whole entry)": "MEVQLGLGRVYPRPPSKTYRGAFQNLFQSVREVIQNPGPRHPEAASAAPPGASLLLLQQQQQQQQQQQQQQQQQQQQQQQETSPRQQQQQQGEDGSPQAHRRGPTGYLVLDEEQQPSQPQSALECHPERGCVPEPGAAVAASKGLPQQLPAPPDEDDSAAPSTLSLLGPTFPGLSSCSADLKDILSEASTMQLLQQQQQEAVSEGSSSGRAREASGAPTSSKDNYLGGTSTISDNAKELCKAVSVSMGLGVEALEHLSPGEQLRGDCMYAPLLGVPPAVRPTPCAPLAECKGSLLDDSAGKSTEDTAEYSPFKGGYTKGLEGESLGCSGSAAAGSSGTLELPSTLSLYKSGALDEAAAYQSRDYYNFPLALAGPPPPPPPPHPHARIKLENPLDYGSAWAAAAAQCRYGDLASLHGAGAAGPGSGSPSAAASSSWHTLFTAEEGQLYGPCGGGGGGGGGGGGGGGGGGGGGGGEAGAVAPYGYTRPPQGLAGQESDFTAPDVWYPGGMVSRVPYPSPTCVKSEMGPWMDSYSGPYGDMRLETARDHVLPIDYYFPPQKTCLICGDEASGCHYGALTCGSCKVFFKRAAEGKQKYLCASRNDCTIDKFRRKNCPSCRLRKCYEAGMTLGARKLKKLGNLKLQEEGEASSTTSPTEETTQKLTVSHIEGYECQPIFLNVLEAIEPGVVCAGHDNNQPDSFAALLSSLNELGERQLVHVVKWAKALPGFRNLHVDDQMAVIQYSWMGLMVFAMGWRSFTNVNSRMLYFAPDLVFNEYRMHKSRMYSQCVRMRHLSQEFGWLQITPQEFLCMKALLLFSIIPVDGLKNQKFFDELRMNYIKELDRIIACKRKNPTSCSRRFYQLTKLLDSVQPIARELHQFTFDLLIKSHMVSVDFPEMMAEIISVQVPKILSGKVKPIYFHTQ", "assay": "AR antagonist assay (GRE-LUC luciferase, transfected HEK-293 cells, with 0.1 nM R1881)", "settings": "with 0.1 nM R1881", "procedure": "(§4) Human AR cDNA cloned into pCMV vector, GRE-LUC, and CMV-renilla-LUC were used to transfect cells. HEK-293 cells (ATCC) were plated at 120,000 cells per well of a 24 well plate in DME+5% csFBS (Fisher Scientific, Waltham, Mass.). The cells were transfected using Lipofectamine (Life Technologies, Carlsbad, Calif.) with 0.25 μg GRE-LUC, 0.010 μg CMV-LUC (renilla luciferase) and 25 ng of the AR. […] Luciferase assay was performed 48 hrs after transfection. Firefly luciferase assay values were normalized to renilla luciferase values and were graphed using graphpad prism software (La Jolla, Calif.). […] The IC50 or EC50 values were determined using non-linear regression and […] logistics fitting."}, "GR": {"target": "GR (Homo sapiens (Human), UniProt P04150)", "sequence (P04150 whole entry)": "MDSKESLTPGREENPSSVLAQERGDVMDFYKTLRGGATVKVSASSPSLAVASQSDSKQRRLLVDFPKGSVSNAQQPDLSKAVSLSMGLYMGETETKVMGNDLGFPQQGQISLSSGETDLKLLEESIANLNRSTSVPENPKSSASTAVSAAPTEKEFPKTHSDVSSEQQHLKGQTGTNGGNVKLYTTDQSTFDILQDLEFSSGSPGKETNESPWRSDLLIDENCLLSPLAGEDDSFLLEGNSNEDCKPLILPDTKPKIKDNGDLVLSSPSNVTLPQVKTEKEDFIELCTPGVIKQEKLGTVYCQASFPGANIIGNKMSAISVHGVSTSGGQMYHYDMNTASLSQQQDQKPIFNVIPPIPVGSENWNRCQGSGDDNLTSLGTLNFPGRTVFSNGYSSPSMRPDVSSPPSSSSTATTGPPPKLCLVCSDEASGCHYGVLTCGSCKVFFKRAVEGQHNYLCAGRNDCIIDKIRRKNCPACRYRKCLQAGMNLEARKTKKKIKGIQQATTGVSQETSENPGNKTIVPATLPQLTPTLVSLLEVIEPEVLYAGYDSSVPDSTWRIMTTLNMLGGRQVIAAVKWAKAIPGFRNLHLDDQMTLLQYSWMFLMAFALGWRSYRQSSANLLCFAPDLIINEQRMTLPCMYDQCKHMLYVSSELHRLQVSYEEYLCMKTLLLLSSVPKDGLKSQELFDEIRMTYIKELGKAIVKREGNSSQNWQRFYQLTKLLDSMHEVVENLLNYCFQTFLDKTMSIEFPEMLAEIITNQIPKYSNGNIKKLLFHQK", "assay": "GR antagonist assay (GRE-LUC luciferase, transfected COS-7 cells, with 0.1 nM dexamethasone)", "settings": "10 μM, in the presence of 0.1 nM dexamethasone", "procedure": "COS-7 cells (ATCC, Manassas, Va.) were plated in 24 well plates in DME+5% csFBS without phenol red at 70,000 cells/well. Once the cells attached to the plates (typically after overnight incubation after plating), they were transfected in OPTIMEM medium (Life Technologies) using lipofectamine reagent (Life Technologies) with 0.25 μg GRE-LUC, 25 ng pCR3.1 GR, and 10 ng CMV-renilla LUC per well. Twenty-four hours after transfection, the cells were fed with DME+5% csFBS without phenol red (Fisher Scientific, Waltham, Mass.) and treated with the test compounds (1 pM to 10 μM dose range) in the presence of 0.1 nM dexamethasone (Sigma, St. Louis, Mo.). Sixteen to twenty-four hours after treatment, a luciferase assay was performed using the Dual Luciferase assay kit (Promega, Madison, Wis.). Firefly luciferase values were normalized to Renilla luciferase numbers."}, "PSA gene expression": {"system": "PSA gene expression", "assay": "AR activity assay: PSA gene expression (realtime PCR)", "settings": "1 and 10 μM", "procedure": "as §3"}, "COS-7 cells": {"system": "COS-7 cells", "assay": "Cell proliferation assay, COS-7 (CellTiter-Glo)", "settings": "3 days", "procedure": "as §1, §2"}, "LNCaP cells": {"system": "LNCaP cells", "assay": "Cell proliferation assay, LNCaP (CellTiter-Glo)", "settings": "6 days", "procedure": "as §1, §2"}, "Human AR [2]": {"target": "T1, Human AR", "assay": "AR agonist assay (GRE-LUC luciferase, transfected HEK-293 cells, test article alone)", "settings": "HEK-293 transfected with human AR, read-out: AR Agonist IC50", "procedure": "as §4"}, "GFP-AR": {"target": "GFP-AR (Homo sapiens (Human), UniProt P10275)", "sequence (P10275 whole entry, looked up)": "as the sequence (P10275 whole entry) above", "settings": "COS cells, GFP-AR, 30 min pre-treatment, then R1881 for four hours", "procedure": "COS cells plated in chamber slides in DME+5% csFBS without phenol red were transfected with […] GFP-AR using lipofectamine reagent."}}, "data": [{"smiles": "CC1(C)C(=O)N(c2ccc(C#N)c(C(F)(F)F)c2)C(=S)N1c1ccc(CNC(=O)c2ccccn2)c(F)c1", "note": "[Compound 8]", "values": [{"measurement": "cell proliferation, % of vehicle at 3 μM", "setting": "22RV1 cells; 22RV1, 3 μM", "value": 87, "unit": "%"}, {"measurement": "cell proliferation, % of vehicle at 10 μM", "setting": "22RV1 cells; 22RV1, 10 μM", "value": 90, "unit": "%"}, {"measurement": "FKBP5 gene expression", "setting": "FKBP5 gene expression", "value": "significant inhibition"}, {"measurement": "activity at 3 µM", "setting": "LNCaP-abl cells; 3 μM, read-out: cell proliferation, % of vehicle at 3 μM", "value": 83, "unit": "%"}, {"measurement": "activity at 10 µM", "setting": "LNCaP-abl cells; 10 μM, read-out: cell proliferation, % of vehicle at 10 μM", "value": 62, "unit": "%"}, {"measurement": "IC50", "setting": "Human AR [1]", "value": 47.2, "unit": "nM"}, {"measurement": "GR antagonist assay, % of vehicle", "setting": "GR", "value": 52, "unit": "%"}, {"measurement": "PSA gene expression", "setting": "PSA gene expression", "value": "significant inhibition"}, {"measurement": "cell proliferation, % of vehicle at 3 μM", "setting": "COS-7 cells; COS-7, 3 μM", "value": 99, "unit": "%"}, {"measurement": "cell proliferation, % of vehicle at 10 μM", "setting": "COS-7 cells; COS-7, 10 μM", "value": 91, "unit": "%"}, {"measurement": "cell proliferation, % of vehicle at 3 μM", "setting": "LNCaP cells; 3 μM", "value": 63, "unit": "%"}, {"measurement": "cell proliferation, % of vehicle at 10 μM", "setting": "LNCaP cells; 10 μM", "value": 19, "unit": "%"}, {"measurement": "EC50", "setting": "Human AR [2]", "value": "> 10000", "unit": "nM"}, {"measurement": "AR localization (cytoplasmic or nuclear)", "setting": "GFP-AR", "value": "nuclear"}]}]}
